Data taken from patent US9556165B2 (priority 2012, dated 2017).
Values after ≈ are worked out from the molar mass of the structure shown. Like-named read-outs stand apart in the source and are kept apart here.

Key:
Format in all cases: cell-based
[1] = system: E. coli ATCC25922; assay: MIC determination, broth microdilution (CLSI); details: for MIC: Escherichia coli, ATCC25922, strain 1
[2] = system: E. coli J62-TEM-3; assay: MIC determination, broth microdilution (CLSI); details: Escherichia coli, J62TEM3, read-out: MIC strain 18 (E. coli J62-TEM-3), strain 18; broth microdilution
[3] = system: P. aeruginosa 2297 (AmpC wt); assay: MIC determination, broth microdilution (CLSI); details: Pseudomonas aeruginosa, strain 7
[4] = system: H. influenzae ATCC 49247; assay: MIC determination, broth microdilution (CLSI); details: Haemophilus influenzae, ATCC49247, strain 12; broth microdilution; read-out: MIC strain 12 (H. influenzae ATCC 49247)
[5] = system: P. aeruginosa PAO1; assay: MIC determination, broth microdilution (CLSI); details: Pseudomonas aeruginosa, PAO1, strain 6
[6] = system: C. freundii K21/3034; assay: MIC determination, broth microdilution (CLSI); details: Citrobacter freundii, K21/3034, strain 4
[7] = system: Bacteria; assay: MIC determination in combination with β-lactamase inhibitors (constant 4 μg/mL)
[8] = system: A. baumannii ATCC15308; assay: MIC determination, broth microdilution (CLSI); details: Acinetobacter baumannii, ATCC15308, strain 9
[9] = system: E. coli J62; assay: MIC determination, broth microdilution (CLSI); details: Escherichia coli, J62, strain 17; broth microdilution; read-out: MIC strain 17 (E. coli J62)
[10] = system: S. aureus 133; assay: MIC determination, broth microdilution (CLSI)
[11] = system: M. morganii 126/3048; assay: MIC determination, broth microdilution (CLSI); details: Morganella morganii, 126/3048, strain 5
[12] = system: E. cloacae 34654; assay: MIC determination, broth microdilution (CLSI); details: Enterobacter cloacae, 34654, strain 3
[13] = system: S. pneumoniae 113; assay: MIC determination, broth microdilution (CLSI); details: Streptococcus pneumoniae, 113, strain 13; broth microdilution; read-out: MIC strain 13 (S. pneumoniae 113)
[14] = system: K. pneumoniae 60; assay: MIC determination, broth microdilution (CLSI); details: Klebsiella pneumoniae, 60, strain 2
[15] = system: B. fragilis 6688; assay: MIC determination, broth microdilution (CLSI); details: Bacteroides fragilis, 6688, strain 15; broth microdilution; read-out: MIC strain 15 (B. fragilis 6688)
[16] = Staphylococcus aureus, 133, strain 11, read-out: strain 11 MIC
[17] = Staphylococcus aureus, 133, strain 14, broth microdilution, read-out: MIC strain 14 (S. aureus 133)

| SMILES | strain 1 MIC ([1]; strain 1) [µg/mL] | MIC [2] [µg/mL] | MIC [3] [µg/mL] | MIC [4] [µg/mL] | MIC [5] [µg/mL] | MIC [6] [µg/mL] | MIC strain 19 (E. coli J62-TEM-3 + 4 μg/mL clavulanic acid) [7] [µg/mL] | MIC strain 20 (E. coli J62-TEM-3 + 4 μg/mL sulbactam) [7] [µg/mL] | MIC strain 21 (E. coli J62-TEM-3 + 4 μg/mL tazobactam) [7] [µg/mL] | MIC [8] [µg/mL] | MIC [9] [µg/mL] | MIC [10, 16] [µg/mL] | MIC [10, 17] [µg/mL] | MIC [11] [µg/mL] | MIC [12] [µg/mL] | MIC [13] [µg/mL] | MIC [14] [µg/mL] | MIC [1] [µg/mL] | MIC [15] [µg/mL] |
| --- | --- | --- | --- | --- | --- | --- | --- | --- | --- | --- | --- | --- | --- | --- | --- | --- | --- | --- | --- |
| CC1(C)[C@H](NC(=O)/C(=N\O[C@H](COc2ccc(C(=N)NCc3ncc[nH]3)cc2)C(=O)O)c2csc(N)n2)C(=O)N1OS(=O)(=O)O [Example 105, (2R)-2-({[(1Z)-1-(2-Amino-1,3-thiazol-4-yl)-2-{[(3S)-2,2-dimethyl-4-oxo-1-(sulfooxy)-azetidin-3-yl]amino}-2-oxoethylidene]amino}oxy)-3-{4-[N-(1H-imidazol-2-ylmeth-yl)carbamimidoyl]phenoxy}propanoic acid] | 16 | – | – | – | – | – | – | – | – | – | – | – | – | – | – | – | – | – | – |
| C[C@H]1[C@H](NC(=O)/C(=N\OCCOc2cc(C(=N)N)n(C)n2)c2csc(N)n2)C(=O)N1S(=O)(=O)O [Example 72, (2S,3S)-3-{[(2Z)-2-(2-Amino-1,3-thiazol-4-yl)-2-({2-[(5-carbamimidoyl-1-methyl-1H-pyrazol-3-yl)oxy]ethoxy}imino)acetyl]amino}-2-methyl-4-oxoazetidine-1-sulfonic acid] | – | 32 (≈ 62.1 µM) | 8 (≈ 15.5 µM) | 0.5 (≈ 0.97 µM) | 8 (≈ 15.5 µM) | 0.5 (≈ 0.97 µM) | 1 | 1 | 1 | 4 (≈ 7.76 µM) | 1 (≈ 1.94 µM) | 0.25 (≈ 0.485 µM) | 16 (≈ 31 µM) | 0.25 (≈ 0.485 µM) | 1 (≈ 1.94 µM) | 2 (≈ 3.88 µM) | 0.25 (≈ 0.485 µM) | 0.5 (≈ 0.97 µM) | 16 (≈ 31 µM) |
| C[C@H]1[C@H](NC(=O)/C(=N\OCCOc2ccc(C(=N)NCCN)cc2)c2csc(N)n2)C(=O)N1OCS(=O)(=O)O [Example 77, {[(2S,3S)-3-{[(2Z)-2-[(2-{4-[N-(2-Aminoethyl)carbamimidoyl]phenoxy}ethoxy)imino]-2-(2-amino-1,3-thiazol-4-yl)acetyl]amino}-2-methyl-4-oxoazetidin-1-yl]oxy}methanesulfonic acid] | – | 16 (≈ 27.4 µM) | 16 (≈ 27.4 µM) | – | 8 (≈ 13.7 µM) | 0.5 (≈ 0.855 µM) | 1 | 1 | 1 | 8 (≈ 13.7 µM) | 0.5 (≈ 0.855 µM) | – | – | 2 (≈ 3.42 µM) | 2 (≈ 3.42 µM) | – | 2 (≈ 3.42 µM) | 0.5 (≈ 0.855 µM) | – |
| C[C@H]1[C@H](NC(=O)/C(=N\OCCOCc2cc(C(=N)N)cs2)c2csc(N)n2)C(=O)N1S(=O)(=O)O [Example 56, (2S,3S)-3-{[(2Z)-2-(2-Amino-1,3-thiazol-4-yl)-2-({2-[(4-carbamimidoylthiophen-2-yl)methoxy]ethoxy}imino)acetyl]amino}-2-methyl-4-oxoazetidine-1-sulfonic acid] | – | 32 (≈ 60.2 µM) | 32 (≈ 60.2 µM) | 2 (≈ 3.76 µM) | 32 (≈ 60.2 µM) | 0.5 (≈ 0.941 µM) | 1 | 4 | 4 | 4 (≈ 7.52 µM) | 2 (≈ 3.76 µM) | 1 (≈ 1.88 µM) | 8 (≈ 15 µM) | 0.5 (≈ 0.941 µM) | 4 (≈ 7.52 µM) | 4 (≈ 7.52 µM) | 0.5 (≈ 0.941 µM) | 2 (≈ 3.76 µM) | 32 (≈ 60.2 µM) |
| C[C@H]1[C@H](NC(=O)/C(=N\OCCOc2ccc(C(=N)NCCOC=O)cc2)c2csc(N)n2)C(=O)N1S(=O)(=O)O [Example 70, (2S,3S)-3-{[(2Z)-2-(2-Amino-1,3-thiazol-4-yl)-2-{[2-(4-{N-[2-(formyloxy)ethyl]carbamimidoyl}phenoxy)ethoxy]imino}acetyl]amino}-2-methyl-4-oxoazetidine-1-sulfonic acid] | – | 16 (≈ 27.4 µM) | 4 (≈ 6.85 µM) | 0.125 (≈ 0.214 µM) | 4 (≈ 6.85 µM) | 0.125 (≈ 0.214 µM) | 0.25 | 0.25 | 0.25 | 2 (≈ 3.43 µM) | 0.25 (≈ 0.428 µM) | 0.125 (≈ 0.214 µM) | 8 (≈ 13.7 µM) | 0.125 (≈ 0.214 µM) | 0.25 (≈ 0.428 µM) | 0.5 (≈ 0.857 µM) | 0.25 (≈ 0.428 µM) | 0.125 (≈ 0.214 µM) | 16 (≈ 27.4 µM) |
| C[C@H]1[C@H](NC(=O)/C(=N\OCCOc2nnc(C(=N)N)s2)c2csc(N)n2)C(=O)N1S(=O)(=O)O [Example 65, (2S,3S)-3-{[(2Z)-2-(2-Amino-1,3-thiazol-4-yl)-2-({2-[(5-carbamimidoyl-1,3,4-thiadiazol-2-yl)oxy]ethoxy}imino)acetyl]amino}-2-methyl-4-oxoazetidine-1-sulfonic acid] | – | 32 (≈ 61.6 µM) | 32 (≈ 61.6 µM) | 0.5 (≈ 0.962 µM) | 16 (≈ 30.8 µM) | 0.25 (≈ 0.481 µM) | 0.5 | 1 | 2 | 8 (≈ 15.4 µM) | 1 (≈ 1.92 µM) | 0.25 (≈ 0.481 µM) | 8 (≈ 15.4 µM) | 0.125 (≈ 0.241 µM) | 0.5 (≈ 0.962 µM) | 1 (≈ 1.92 µM) | 0.25 (≈ 0.481 µM) | 0.5 (≈ 0.962 µM) | 16 (≈ 30.8 µM) |
| CC(C)NC(=N)c1ccc(OCCO/N=C(\C(=O)N[C@@H]2C(=O)N(S(=O)(=O)O)[C@H]2C)c2csc(N)n2)cc1 [Example 54, (2S,3S)-3-({(2Z)-2-(2-Amino-1,3-thiazol-4-yl)-2-[(2-{4-[N-(propan-2-yl)carbamimidoyl]phenoxy}ethoxy)imino]acetyl}amino)-2-methyl-4-oxoazetidine-1-sulfonic acid] | – | 16 (≈ 28.9 µM) | 8 (≈ 14.5 µM) | – | 4 (≈ 7.23 µM) | 0.25 (≈ 0.452 µM) | 0.5 | 0.25 | 0.5 | 4 (≈ 7.23 µM) | 0.5 (≈ 0.903 µM) | – | 2 (≈ 3.61 µM) | 1 (≈ 1.81 µM) | 0.5 (≈ 0.903 µM) | – | 0.5 (≈ 0.903 µM) | 0.5 (≈ 0.903 µM) | – |
